Experimental data as given in US5852191A, “Rigidized monomethine cyanines” (Carnegie Mellon University, priority 1995, dated 1998).
Like-named read-outs stand apart in the source and are kept apart here.

Legend:
[1] = Relative fluorescence of boron-rigidized vs unrigidized dye in methanol (FIG. 2); format: physicochemical; conditions: excited at 348 nm, vs bis-benzoxazolylmethene hydrochloride
Text: The present inventors have determined that the rigidization of the basic monomethine cyanine structure increase the quantum efficiency of the dye molecules as much as 5 to 20 times. Thus, the boron-rigidized dyes of the present invention are unusually fluorescent compared with nonrigidized cyanine dye molecules. The present invention thus provides a method for increasing the fluorescence of dyes by rigidizing monomethine cyanine compounds with a boron bridge. Rigidization increase the planarity of the compound, and the fluorescence intensity.

[2] = Absorption/emission spectra and molar extinction coefficients of the compounds of Examples A and B in solvents (Table 3); format: physicochemical; conditions: for Shape of emission spectrum relative to absorption spectrum: FIG. 3 and FIG. 4; for Stokes shift: solvents of Table 3
Text: (§1) The observed absorption maxima, molar extinction coefficients, emission maxima and qualitative solubility data for the boron-rigidized complexes of Examples A and B are provided in Table 3.

[3] = Resistance to photodegradation (500 watt mercury vapor lamp; optical density monitored); format: physicochemical; conditions: for Red shift at the maximum wavelength / Resistance to photofading compared with the Coumarin dyes: dichloromethane; for Photofading rate compared with the corresponding Coumarin compound: methanol, 500 watt mercury vapor lamp
Text: The resistance to photodegradation of the compounds of Examples A and B in methanol and dichloromethane was also investigated and was compared with photofading rates of certain Coumarin dyes. A degassed solution of each dye in a quartz cuvette was illuminated with a 500 watt mercury vapor lamp from a distance of 4 inches. The solution optical density at maximum wavelength was monitored as a function of time.

[4] = Qualitative solubility of the compounds of Examples A and B (Table 3); format: physicochemical; conditions: applies to either dye compound
Text: as §1

[5] = Relative fluorescence intensities of the compounds of Examples A and B in a variety of solvents (Table 4); format: physicochemical
Text: See M. T. Ramos et al., Heterocycles, Vol. 29, p. 165 (1989).

[6] = Dimer formation of dye by UV spectrum on thin glass slide; format: physicochemical
[7] = Absorptive and emissive wavelength maxima and fluorescence of the compounds of Examples C to I; format: physicochemical; conditions: for Maximum absorptive wavelength / Maximum emissive wavelength: measured in methanol; for Fluorescence (in words): qualitative, methanol where stated
[8] = cited from earlier work; for RI (relative intensity): 1.00 = intensity of the dye in methanol
[9] = cited from earlier work
[10] = Literature spectral properties of prior art fluorescent dyes; format: physicochemical

Compound: F[B-]1(F)N2C(=Cc3oc4ccccc4[n+]31)Oc1ccccc12 [Example B, Bis-benzoxazolylmethene Borondifluoride]
- Quantum yield compared with the unrigidized dye [1]: several fold greater than the unrigidized dye
- Logarithm of the Extinction coefficient ([2]; Acetonitrile): 4.72 M^-1 cm^-1
- Max. absorption wavelength ([2]; Acetonitrile): 358 nm
- Max. emission wavelength ([2]; Acetonitrile): 385 nm
- Logarithm of the Extinction coefficient ([2]; Chloroform): 4.72 M^-1 cm^-1
- Max. absorption wavelength ([2]; Chloroform): 360 nm
- Max. emission wavelength ([2]; Chloroform): 386 nm
- Max. absorption wavelength ([2]; Ethanol): 358 nm
- Max. emission wavelength ([2]; Ethanol): 386 nm
- Logarithm of the Extinction coefficient ([2]; Ethyl Acetate): 4.74 M^-1 cm^-1
- Max. absorption wavelength ([2]; Ethyl Acetate): 358 nm
- Max. emission wavelength ([2]; Ethyl Acetate): 383 nm
- Shape of emission spectrum relative to absorption spectrum [2]: appears to be much broader
- Max. absorption wavelength ([2]; Methanol): 358 nm
- Max. emission wavelength ([2]; Methanol): 385 nm
- Logarithm of the Extinction coefficient ([2]; Toluene): 4.74 M^-1 cm^-1
- Max. absorption wavelength ([2]; Toluene): 360 nm
- Max. emission wavelength ([2]; Toluene): 392 nm
- Stokes shift [2]: 28 nm
- Red shift at the maximum wavelength [3]: approximately 12 nm
- Resistance to photofading compared with the Coumarin dyes [3]: more resistant to photofading than the Coumarin dyes
- Photofading rate compared with the corresponding Coumarin compound [3]: faded at a similar rate
- Solubility data (qualitative) ([4]; Acetonitrile): sol.
- Solubility data (qualitative) ([4]; Chloroform): sol.
- Solubility data (qualitative) ([4]; Ethanol): sparingly
- Solubility data (qualitative) ([4]; Ethyl Acetate): sol.
- Solubility data (qualitative) ([4]; Methanol): sparingly
- Solubility data (qualitative) ([4]; Toluene): sol.
- Relative fluorescence intensity ([5]; Acetonitrile): 1.39
- Relative fluorescence intensity ([5]; Chloroform): 1.27
- Relative fluorescence intensity ([5]; Ethanol): 1.33
- Relative fluorescence intensity ([5]; Ethyl Acetate): 1.20
- Relative fluorescence intensity ([5]; Methanol): 1.35
- Relative fluorescence intensity ([5]; Toluene): 1.42

Compound: O=C(Cc1ccc2c(c1)N1C(=Cc3oc4ccc(CC(=O)ON5C(=O)CCC5=O)cc4[n+]3[B-]1(F)F)O2)ON1C(=O)CCC1=O [Blue 1-OSu, disuccinimidyl benzoxazolylmethene borondifluoride complex]
- Dimer by UV spectrum ([6]; DMF reaction mixture): presence of dimer

Compound: N#CC1=C2C=CC=CN2[B-](F)(F)[n+]2ccccc21 [Example G]
- Maximum absorptive wavelength [7]: 432 nm
- Maximum emissive wavelength [7]: 460 nm
- Fluorescence (in words) [7]: very fluorescent

Compound: F[B-]1(F)N2C=CC=CC2=Cc2sc3ccccc3[n+]21 [Example F, Benzothiazolyl Pyridylmonomethine Borondifluoride]
- Maximum absorptive wavelength [7]: 430 nm
- Maximum emissive wavelength [7]: 476 nm
- Fluorescence (in words) [7]: high fluorescence

Compound: F[B-]1(F)N2C(=Cc3sc4ccccc4[n+]31)Oc1ccccc12 [Example D]
- Maximum absorptive wavelength [7]: 388 nm
- Maximum emissive wavelength [7]: 414 nm
- Fluorescence (in words) [7]: highly fluorescent

Compound: CC1=CC(C)=[N+]2C1=Cc1c(C)c(S(=O)(=O)O)c(C)n1[B-]2(F)F [Bodipy-sulfonate, 4-Sulfonato-3,3'5,5'-Tetramethyl-2,2'-Pyrromethene-1,1'-Borondifluoride Complex]
- RI (relative intensity) ([8]; Acetonitrile): 0.69
- Extinction coefficient ([8]; Acetonitrile): 58.9 cm⁻¹ mM⁻¹
- Max. absorption wavelength ([8]; Acetonitrile): 504 nm
- Max. emission wavelength ([8]; Acetonitrile): 514 nm
- RI (relative intensity) ([8]; Dioxane): 0.64
- Extinction coefficient ([8]; Dioxane): 52.7 cm⁻¹ mM⁻¹
- Max. absorption wavelength ([8]; Dioxane): 506 nm
- Max. emission wavelength ([8]; Dioxane): 518 nm
- RI (relative intensity) ([8]; Methanol): 1.00
- Extinction coefficient ([8]; Methanol): 57.7 cm⁻¹ mM⁻¹
- Max. absorption wavelength ([8]; Methanol): 500 nm
- Max. emission wavelength ([8]; Methanol): 515 nm
- RI (relative intensity) ([8]; Water): 0.67
- Extinction coefficient ([8]; Water): 39.7 cm⁻¹ mM⁻¹
- Max. absorption wavelength ([8]; Water): 494 nm
- Max. emission wavelength ([8]; Water): 509 nm

Compound: CC1=CC(C)=[N+]2C1=Cc1c(C)cc(C)n1[B-]2(F)F [Bodipy, 3,3',5,5'-tetramethyl-2,2'-pyrromethene-1,1'-boron-difluoride]
- RI (relative intensity) ([8]; Acetonitrile): 0.87
- Extinction coefficient ([8]; Acetonitrile): 86.7 cm⁻¹ mM⁻¹
- Max. absorption wavelength ([8]; Acetonitrile): 501 nm
- Max. emission wavelength ([8]; Acetonitrile): 508 nm
- RI (relative intensity) ([8]; Dioxane): 0.63
- Extinction coefficient ([8]; Dioxane): 80.0 cm⁻¹ mM⁻¹
- Max. absorption wavelength ([8]; Dioxane): 505 nm
- Max. emission wavelength ([8]; Dioxane): 512 nm
- RI (relative intensity) ([8]; Methanol): 1.00
- Extinction coefficient ([8]; Methanol): 85.3 cm⁻¹ mM⁻¹
- Max. absorption wavelength ([8]; Methanol): 501 nm
- Max. emission wavelength ([8]; Methanol): 509 nm
- RI (relative intensity) ([8]; Water): 0.48
- Max. absorption wavelength ([8]; Water): 500 nm
- Max. emission wavelength ([8]; Water): 508 nm
- Maximum absorptive wavelength ([9]; aqueous media): 500 nm
- Maximum emissive wavelength ([9]; aqueous media): 508 nm
- Emission maximum ([9]; solvent not stated): 508 nm

Compound: 7-amino-4-methylcoumarin acetate
- Fluorescence capacity (extinction coefficient x quantum yield) relative to the present inventions' compounds [10]: approximately one-quarter

Compound: F[B-]1(F)N2C(=Cc3ccc4ccccc4[n+]31)Sc1ccccc12 [Example I, 2(2'-Benzothiazolylmethene)Quinoline Borondifluoride]
- Maximum absorptive wavelength [7]: 480 nm
- Maximum emissive wavelength [7]: 492 nm
- Fluorescence (in words) [7]: green fluorescence

Compound: O=C(O)CC1=C2Sc3cc(S(=O)(=O)O)ccc3N2[B-](F)(F)[n+]2c1sc1cc(S(=O)(=O)O)ccc12
- Dimer by UV spectrum ([6]; HMPA): absence of dimer

Compound: CC(=O)C1=C2Sc3ccccc3N2[B-](F)(F)[n+]2c1sc1ccccc12 [Example E]
- Maximum absorptive wavelength [7]: 416 nm
- Fluorescence (in words) [7]: less fluorescent than the base benzothiazole chromophore

Compound: O=C(O)Cc1ccc2c(c1)N1C(=Cc3oc4ccc(CC(=O)O)cc4[n+]3[B-]1(F)F)O2 [Example C, Bis-carboxymethyl Benzoxazolylmethene Borondifluoride]
- Maximum absorptive wavelength [7]: 362 nm
- Maximum emissive wavelength [7]: 386 nm
- Fluorescence (in words) [7]: highly fluorescent

Compound: F[B-]1(F)N2C(=Cc3ccc4ccccc4[n+]31)C=Cc1ccccc12 [Example H, Bis-Quinolinemethene Borondifluoride]
- Maximum absorptive wavelength [7]: 512 nm
- Maximum emissive wavelength [7]: 518 nm
- Fluorescence (in words) [7]: intense green fluorescence

Compound: F[B-]1(F)N2C(=Cc3sc4ccccc4[n+]31)Sc1ccccc12 [Example A, Bis-benzothiazolylmethene Borondifluoride]
- Logarithm of the Extinction coefficient ([2]; Acetonitrile): 4.97 M^-1 cm^-1
- Max. absorption wavelength ([2]; Acetonitrile): 418 nm
- Max. emission wavelength ([2]; Acetonitrile): 423 nm
- Logarithm of the Extinction coefficient ([2]; Chloroform): 4.97 M^-1 cm^-1
- Max. absorption wavelength ([2]; Chloroform): 420 nm
- Max. emission wavelength ([2]; Chloroform): 425 nm
- Max. absorption wavelength ([2]; Ethanol): 418 nm
- Max. emission wavelength ([2]; Ethanol): 423 nm
- Logarithm of the Extinction coefficient ([2]; Ethyl Acetate): 4.98 M^-1 cm^-1
- Max. absorption wavelength ([2]; Ethyl Acetate): 418 nm
- Max. emission wavelength ([2]; Ethyl Acetate): 423 nm
- Shape of emission spectrum relative to absorption spectrum [2]: mirrors its absorption spectrum
- Max. absorption wavelength ([2]; Methanol): 418 nm
- Max. emission wavelength ([2]; Methanol): 422 nm
- Logarithm of the Extinction coefficient ([2]; Toluene): 4.95 M^-1 cm^-1
- Max. absorption wavelength ([2]; Toluene): 420 nm
- Max. emission wavelength ([2]; Toluene): 427 nm
- Stokes shift [2]: 5-7 nm
- Red shift at the maximum wavelength [3]: approximately 12 nm
- Resistance to photofading compared with the Coumarin dyes [3]: more resistant to photofading than the Coumarin dyes
- Photofading rate compared with the corresponding Coumarin compound [3]: faded somewhat faster
- Solubility data (qualitative) ([4]; Acetonitrile): sol.
- Solubility data (qualitative) ([4]; Chloroform): sol.
- Solubility data (qualitative) ([4]; Ethanol): sparingly
- Solubility data (qualitative) ([4]; Ethyl Acetate): sol.
- Solubility data (qualitative) ([4]; Methanol): sparingly
- Solubility data (qualitative) ([4]; Toluene): sol.
- Relative fluorescence intensity ([5]; Acetonitrile): 0.89
- Relative fluorescence intensity ([5]; Chloroform): 0.91
- Relative fluorescence intensity ([5]; Ethyl Acetate): 0.97
- Relative fluorescence intensity ([5]; Methanol): 0.89
- Relative fluorescence intensity ([5]; Toluene): 0.81
